Test results reported in ChEMBL document CHEMBL3351547, “Ricinine: a pyridone alkaloid from Ricinus communis that activates the Wnt signaling pathway through casein kinase 1α” (Bioorg Med Chem, 2014).
Calls of active or inactive are those of the source. No cut-off for these calls is given here.

Columns and labels:
HEK293 [1] = assay: Activation of gene transcription in HEK293 cells assessed as increase in FOP at 10 to 30 uM activity by luciferase reporter gene assay; type: functional, cell-based; settings: Homo sapiens
HEK293 [2] = assay: Cytotoxicity against STF reporter expressing HEK293 cells at 10 to 30 uM after 24 hrs by fluorescein diacetate dye based fluorescence assay; type: cell-based; settings: human, hek293, 24 h
STF/293 = assay: Activation of TCF/beta-catenin transcription in human STF/293 cells assessed as increase in TOP activity by luciferase reporter gene assay; type: cell-based
[3] = target: Casein kinase I isoform alpha (Homo sapiens) (UniProt P48729); assay: Inhibition of CK1alpha in human STF/293 cells assessed as reduction in beta-catenin Thr41 phosphorylation at 5 to 20 uM after 24 hrs; type: cell-based
Sequence of Casein kinase I isoform alpha (Homo sapiens) (P48729 2-337 limits assumed): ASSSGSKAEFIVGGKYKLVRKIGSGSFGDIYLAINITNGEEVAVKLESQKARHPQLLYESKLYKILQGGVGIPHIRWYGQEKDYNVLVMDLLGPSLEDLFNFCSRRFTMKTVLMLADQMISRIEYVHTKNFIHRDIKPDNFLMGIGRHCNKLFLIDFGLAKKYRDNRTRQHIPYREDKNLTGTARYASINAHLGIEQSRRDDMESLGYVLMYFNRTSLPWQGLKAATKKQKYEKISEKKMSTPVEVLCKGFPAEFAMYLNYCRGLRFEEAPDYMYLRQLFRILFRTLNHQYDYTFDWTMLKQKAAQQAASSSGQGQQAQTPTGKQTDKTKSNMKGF

HEK293 [4] = assay: Effect on CK1alpha expression in STF reporter expressing HEK293 cells at 5 to 20 uM after 24 hrs; type: functional, cell-based; settings: Homo sapiens
[5] = target: Casein kinase I isoform alpha (Homo sapiens) (UniProt P48729); assay: Inhibition of CK1alpha in human STF/293 cells assessed as reduction in beta-catenin Ser37 phosphorylation at 5 to 20 uM after 24 hrs; type: cell-based
[6] = Activation of Proto-oncogene protein Wnt/beta-catenin pathway in human STF/293 cells assessed as increase in cytosolic beta-catenin expression at 5 to 20 uM after 24 hrs; type: cell-based
[7] = target: Casein kinase I isoform alpha (Homo sapiens) (UniProt P48729); assay: Inhibition of CK1alpha in human STF/293 cells assessed as reduction in beta-catenin Ser45 phosphorylation at 5 to 20 uM after 24 hrs; type: cell-based
[8] = target: Casein kinase I isoform alpha (Homo sapiens) (UniProt P48729); assay: Inhibition of CK1alpha in human STF/293 cells assessed as reduction in beta-catenin Ser45 phosphorylation at 20 uM in presence of 200 nM CK1alpha activator pyrvinium after 24 hrs; type: cell-based
[9] = target: Casein kinase I isoform alpha (Homo sapiens) (UniProt P48729); assay: Inhibition of CK1alpha in human STF/293 cells assessed as reduction in beta-catenin Ser33/Ser37/Thr41 phosphorylation at 20 uM in presence of 200 nM CK1alpha activator pyrvinium after 24 hrs; type: cell-based
[10] = Activation of Proto-oncogene protein Wnt/beta-catenin pathway in human STF/293 cells assessed as increase in beta-catenin expression at 20 uM in presence of 200 nM CK1alpha activator pyrvinium after 24 hrs; type: cell-based
[11] = target: Casein kinase I isoform alpha (Homo sapiens) (UniProt P48729); assay: Inhibition of CK1alpha in human STF/293 cells assessed as reduction in beta-catenin Ser33 phosphorylation at 5 to 20 uM after 24 hrs; type: cell-based
HEK293 [12] = assay: Effect on GSK3beta expression in STF reporter expressing HEK293 cells at 5 to 20 uM after 24 hrs; type: functional, cell-based; settings: Homo sapiens
[13] = Activation of Proto-oncogene protein Wnt/beta-catenin pathway in human STF/293 cells assessed as increase in nuclear beta-catenin expression at 5 to 20 uM after 24 hrs; type: cell-based
[14] = Activation of Proto-oncogene protein Wnt/beta-catenin pathway in zebra fish assessed as increase in beta-catenin expression at 100 to 300 uM treated from 1.75 hrs post fertilization to 24 hrs post fertilization; settings: Danio rerio

Structure (SMILES) | Activity (HEK293 [1]) | Activity (HEK293 [2]) | Activity (STF/293) | inhibition [3] | Activity (HEK293 [4]) | inhibition [5] | Activity [6] | inhibition [7] | inhibition [8] | inhibition [9] | Activity [10] | inhibition [11] | Activity (HEK293 [12]) | Activity [13] | Activity [14]
CC[C@H](CC[C@@H](C)[C@H]1CC[C@H]2[C@@H]3C(=O)C=C4C[C@@H](O)CC[C@]4(C)[C@H]3CC[C@]12C)C(C)C | inactive | Non-toxic | Dose-dependent effect |  |  |  |  |  |  |  |  |  |  |  | 
C=C(C)[C@@H]1CC[C@]2(C)CC[C@]3(C)[C@H](CC[C@@H]4[C@@]5(C)CC[C@H](O)C(C)(C)[C@@H]5CC[C@]43C)[C@@H]12 [LUPEOL] |  | Non-toxic | Dose-dependent effect |  |  |  |  |  |  |  |  |  |  |  | 
COc1ccn(C)c(=O)c1C#N [RICININE] | inactive | Non-toxic | Dose-dependent effect | Active | inactive | Active | Active | Active | Active | Active | Active | Active | inactive | Active | Dose-dependent effect
CC[C@H](CC[C@@H](C)[C@H]1CC[C@H]2[C@@H]3CC=C4C[C@@H](O[C@@H]5O[C@H](CO)[C@@H](O)[C@H](O)[C@H]5O)CC[C@]4(C)[C@H]3CC[C@]12C)C(C)C [SITOGLUSIDE] |  | Non-toxic | Dose-dependent effect |  |  |  |  |  |  |  |  |  |  |  | 
